Several values for one entry are separate records, joined by “and”; a condition that tells them apart may be missing. Equal entries are not always repeated.
Tested on: serum levels of 58 analytes
Assay: Serum biomarker analysis, quantitative immunoassay multi-analyte profiling (Rules-Based Medicine RodentMAP v2.9), AA#80
Format: in vivo, mouse
Conditions: serum, listed as Human LgG1 Control
Experimental: In AA#80, serum samples were collected on Day 27, Day 34, Day 41 and Day 55 via the submandibular vein. Approximately 200 μL of blood per mouse was collected in Microtainer® serum separator tubes. Serum was removed following centrifugation and stored at <−65° C. until analysis.
Selected serum samples were sent to Rules-Based Medicine (Austin, Tex.) for quantitative immunoassay multi-analyte profiling of serum samples, with the goal of identifying biomarkers that could be used to monitor disease progression and response to B7-H4-Ig treatment. Day 27, Day 34, and Day 41 sera from the three representative mice in the B7-H4-Ig group (tag #3332, 3334, and 3338) and three representative mice in the Synagis® group (tag #3324, 3329, and 3330) were analyzed for levels of 58 analytes using the RodentMAP v2.9 Testing Service.
Data from the Rules-Based Medicine analysis was analyzed using Microsoft Excel and GraphPad Prism software. T-tests were performed to compare the levels of each analyte in the B7-H4-Ig versus Synagis® treated samples. No correction was made for multiple comparisons. Additionally, correlation coefficients were calculated for each analyte versus disease score.

“Synagis®: humanized monoclonal IgG antibody against the F protein of Respiratory Syncytial Virus; used as a human IgG1 isotype control [reference compound]” was tested, and the “MDC (Macrophage-Derived Chemokine)” value (Day 41, LDD 21.85) was 1410 pg/mL and 1430 pg/mL and 1150 pg/mL, the “MCP-3 (Monocyte Chemoattractant Protein-3)” value (Day 41, LDD 31.36) was 235 pg/mL and 236 pg/mL and 242 pg/mL and the “VEGF (Vescular Endotheial Cell Growth Factor)” value (Day 41, LDD 38.2) was 150 pg/mL and 171 pg/mL and 212 pg/mL. For the same substance, the “IP-10 (Inducible Protein-10)” value (Day 41, LDD 40.28) was 54.7 pg/mL and 68.1 pg/mL and 66.8 pg/mL, the “LIF (Leukemia Infabitory Factor)” value (Day 41, LDD 43.6) was 1650 pg/mL and 1580 pg/mL and 1470 pg/mL and the “MCP-5 (Monocyte Chemoattractant Protein-5)” value (Day 41, LDD 46.38) was 45.6 pg/mL and 47.4 pg/mL and 52.8 pg/mL. The “SCF (Stem Cell Factor)” value (Day 41, LDD 75.17) was 214 pg/mL and 249 pg/mL and 201 pg/mL, the “MIP-1beta (Macrophage Inflammatory Protein-1beta)” value (Day 41, LDD 77.65) was 144 pg/mL and 115 pg/mL and 152 pg/mL and the Lymphotactin (Day 41, LDD 85.48) was 178 pg/mL and 183 pg/mL and 194 pg/mL. The “VWF (Von Willebrand Factor)” value (Day 41, LDD 98.6) was 131 ng/mL and 103 ng/mL and 111 ng/mL, the “M-CSF (Macrophage-Colony Stimulating Factor)” value (Day 27, LDD 0.01795, individual mice) was 6.19 ng/mL and 6.6 ng/mL and 6.59 ng/mL and the “MIP-1gamma (Macrophage Inflammatory Protein-1gamma)” value (Day 27, LDD 0.0736, individual mice) was 36.9 ng/mL and 37.1 ng/mL and 37.9 ng/mL. For the same substance, the “OSM (Oncostatin M)” value (Day 27, LDD 0.13, individual mice) was “<low> (2×) and 0.0103 ng/ml”, the “TNF-alpha (Tumor Necrosis Factor-alpha)” value (Day 27, LDD 0.137, individual mice) was 0.0965 ng/ml and <low> (2×) and the “KC/GROalpha (Melanoma Growth Stimulatory Activity Protein)” value (Day 27, LDD 0.1739, individual mice) was 0.0804 ng/mL and 0.0795 ng/mL and 0.0633 ng/mL. For the same substance, the “TEMP-1 (Tissue Inhibitor of Metalicproteinase Type-1)” value (Day 27, LDD 0.18, individual mice) was 1.38 ng/mL and 1.13 ng/mL and 1.23 ng/mL, the “IL-5 (Interleukin-5)” value (Day 27, LDD 0.194, individual mice) was 0.438 ng/mL and 0.403 ng/mL and 0.264 ng/mL and the “MIP-1alpha (Macrophage Inflammatory Protein-1alpha)” value (Day 27, LDD 0.2255, individual mice) was 3.03 ng/ml (2×) and 3.32 ng/ml. The “IL-7 (Interleukin-7)” value (Day 27, LDD 0.309, individual mice) was 0.0593 ng/ml and <low> (2×), the “MIP-3beta (Macrophage Inflammatory Protein-3beta)” value (Day 27, LDD 0.465, individual mice) was 2.89 ng/mL and 3.05 ng/mL and 2.6 ng/mL and the “RANTCS (Regulation Upon Activation Normal T-Cell Expressed and Secreted)” value (Day 27, LDD 0.5, individual mice) was 0.0826 pg/ml and <low> (2×). For the same substance, the “Tissue Factor” value (Day 27, LDD 0.5175, individual mice) was 9.17 ng/ml (2×) and 10 ng/ml, the “MPO (Myeloperoxidase)” value (Day 27, LDD 0.95, individual mice) was 216 ng/mL and 191 ng/mL and 265 ng/mL and the “SGOT (Serum Glutamic-Oxaloacetic Transaminase)” value (Day 27, LDD 1.86, individual mice) was 84.6 µg/mL and 79.7 µg/mL and 75.4 µg/mL. For the same substance, the “TPO (Thromboproletin)” value (Day 27, LDD 2.66, individual mice) was 38.9 ng/ml (2×) and 34.2 ng/ml, the “SAP (Setrum Amtyloid P)” value (Day 27, LDD 5.4, individual mice) was 40.5 µg/mL and 34.2 µg/mL and 42.9 µg/mL and the “MIP-2 (Macrophage Inflammatory Protein-2)” value (Day 27, LDD 7.174, individual mice) was 16.1 pg/mL and 22.2 pg/mL and 23.4 pg/mL. For the same substance, the “MMP-9 (Matrix Metalloproteinase-9)” value (Day 27, LDD 10, individual mice) was 166 ng/mL and 177 ng/mL and 431 ng/mL, the “IL-6 (Interleukin-6)” value (Day 27, LDD 13.852, individual mice) was 6.27 pg/ml (2×) and <low> and the “MCP-1 (Monocyte Chemoattractant Protein-1)” value (Day 27, LDD 16.924, individual mice) was 74.4 pg/mL and 64.7 pg/mL and 70.5 pg/mL. The “VCAM-1 (Vescular Cell Adhesion Molecule-1)” value (Day 27, LDD 19, individual mice) was 2260 ng/mL and 2080 ng/mL and 3160 ng/mL, the “MDC (Macrophage-Derived Chemokine)” value (Day 27, LDD 21.85, individual mice) was 1250 pg/mL and 1310 pg/mL and 1070 pg/mL and the Myoglobin (Day 27, LDD 24, individual mice) was 8.96 ng/mL and 11.4 ng/mL and 23.8 ng/mL. For the same substance, the “MCP-3 (Monocyte Chemoattractant Protein-3)” value (Day 27, LDD 31.36, individual mice) was 168 pg/mL and 149 pg/mL and 138 pg/mL, the “VEGF (Vescular Endotheial Cell Growth Factor)” value (Day 27, LDD 38.2, individual mice) was 144 pg/mL and 136 pg/mL and 139 pg/mL and the “IP-10 (Inducible Protein-10)” value (Day 27, LDD 40.28, individual mice) was 45.3 pg/mL and 52 pg/mL and 55.5 pg/mL. The “LIF (Leukemia Infabitory Factor)” value (Day 27, LDD 43.6, individual mice) was 1650 pg/mL and 1390 pg/mL and 1470 pg/mL, the “MCP-5 (Monocyte Chemoattractant Protein-5)” value (Day 27, LDD 46.38, individual mice) was 35.7 pg/mL and 37.1 pg/mL and 35.5 pg/mL and the “SCF (Stem Cell Factor)” value (Day 27, LDD 75.17, individual mice) was 226 pg/mL and 207 pg/mL and 220 pg/mL. The “MIP-1beta (Macrophage Inflammatory Protein-1beta)” value (Day 27, LDD 77.65, individual mice) was 173 pg/ml (2×) and 150 pg/ml, the Lymphotactin (Day 27, LDD 85.48, individual mice) was 198 pg/mL and 178 pg/mL and 189 pg/mL and the “VWF (Von Willebrand Factor)” value (Day 27, LDD 98.6, individual mice) was 125 ng/mL and 131 ng/mL and 155 ng/mL.

Reference: US9011853B2, “B7-H4 fusion proteins and methods of use thereof” (Amplimmune, Inc., priority 2009, dated 2015)
